SMILES strings stand for the structures.

Beta-3 Adrenergic Receptor, sequence (P13945 whole entry, species assumed): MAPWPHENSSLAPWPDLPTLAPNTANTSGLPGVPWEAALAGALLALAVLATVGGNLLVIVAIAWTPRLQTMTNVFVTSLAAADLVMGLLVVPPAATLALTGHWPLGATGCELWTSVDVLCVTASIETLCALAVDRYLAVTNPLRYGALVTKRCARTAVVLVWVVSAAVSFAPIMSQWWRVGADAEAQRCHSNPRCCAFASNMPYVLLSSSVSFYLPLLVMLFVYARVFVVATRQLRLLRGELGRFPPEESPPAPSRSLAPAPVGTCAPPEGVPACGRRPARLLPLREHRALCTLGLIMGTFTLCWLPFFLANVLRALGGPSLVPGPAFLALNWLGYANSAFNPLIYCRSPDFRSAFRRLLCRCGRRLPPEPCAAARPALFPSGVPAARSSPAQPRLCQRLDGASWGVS

The test has as its target Beta-3 Adrenergic Receptor (Homo sapiens (Human), UniProt P13945). Description: Homogeneous Time-Resolved Fluorescence (HTRF) cAMP antagonist assay, IC50 determination. It counts as cell-based. Particulars: CHO-K1 cells stably expressing recombinant receptor, isoproterenol at EC90. In outline:
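CHO-K1 cells stably expressing receptor, 1500 cells/well, preincubated briefly with 10-point 5-fold compound series (top final typically 10 or 100 μM) in PBS with 1 mM IBMX, then challenged with isoproterenol at EC90 for 1 h at room temperature. cAMP read by HTRF against on-plate standard curve; IC50 from dose-response.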
In general terms: In TR-FRET formats the signal depends on donor and acceptor labels being close together.
The term IC50 denotes the concentration that gives 50% inhibition. `CNS(=O)(=O)c1cccc(OC[C@@H](O)CN[C@H]2COC3(CCN(S(=O)(=O)c4cnc5c(C)cccc5c4O)CC3)C2)c1` [Compound 528, 3-((S)-2-hydroxy-3-((R)-8-(4-hydroxy-8-methylquinolin-3-ylsulfonyl)-1-oxa-8-azaspiro[4.5]decan-3-ylamino)propoxy)-N-methylbenzenesulfonamide]: the IC50 was 10.2 nM.
Take `CNS(=O)(=O)c1cccc(OC[C@@H](O)CN[C@H]2COC3(CCN(S(=O)(=O)c4c[nH]c5cccnc45)CC3)C2)c1` [Compound 529, 3-((S)-3-((R)-8-(1H-pyrrolo[3,2-b]pyridin-3-ylsulfonyl)-1-oxa-8-azaspiro[4.5]decan-3-ylamino)-2-hydroxypropoxy)-N-methylbenzenesulfonamide]: the IC50 was 124 nM.
Turning to `COCCNS(=O)(=O)c1cccc(OC[C@@H](O)CN[C@H]2COC3(CCN(S(=O)(=O)c4cnc5cc[nH]c5c4)CC3)C2)c1` [Compound 530, 3-((S)-3-((R)-8-(1H-pyrrolo[3,2-b]pyridin-6-ylsulfonyl)-1-oxa-8-azaspiro[4.5]decan-3-ylamino)-2-hydroxypropoxy)-N-(2-methoxyethyl)benzenesulfonamide], the IC50 was determined as 214 nM.
For `CCn1cc(S(=O)(=O)N2CCC3(CC2)C[C@@H](NC[C@H](O)COc2cccc(S(=O)(=O)NC)c2)CO3)c(=O)c2ccc(C)cc21` [Compound 531, 3-((S)-3-((R)-8-(1-ethyl-7-methyl-4-oxo-1,4-dihydroquinolin-3-ylsulfonyl)-1-oxa-8-azaspiro[4.5]decan-3-ylamino)-2-hydroxypropoxy)-N-methylbenzenesulfonamide], the IC50 came out at 50.5 nM.
`NS(=O)(=O)c1cccc(OC[C@@H](O)CN[C@H]2COC3(CCN(S(=O)(=O)c4cnc5cc[nH]c5c4)CC3)C2)c1` [Compound 532, 3-((S)-3-((R)-8-(1H-pyrrolo[3,2-b]pyridin-6-ylsulfonyl)-1-oxa-8-azaspiro[4.5]decan-3-ylamino)-2-hydroxypropoxy)benzenesulfonamide]: the IC50 turned out to be 12.7 nM.
In the case of `CNS(=O)(=O)c1cccc(OC[C@@H](O)CN[C@H]2COC3(CCN(S(=O)(=O)c4cnc5ccc(C)cc5c4O)CC3)C2)c1` [Compound 533, 3-((S)-2-hydroxy-3-((R)-8-(4-hydroxy-6-methylquinolin-3-ylsulfonyl)-1-oxa-8-azaspiro[4.5]decan-3-ylamino)propoxy)-N-methylbenzenesulfonamide], the IC50 came out at 24.4 nM.
With `CNS(=O)(=O)c1cccc(OC[C@@H](O)CN[C@H]2COC3(CCN(S(=O)(=O)c4cnc5ccc(F)cc5c4O)CC3)C2)c1` [Compound 534, 3-((S)-3-((R)-8-(6-fluoro-4-hydroxyquinolin-3-ylsulfonyl)-1-oxa-8-azaspiro[4.5]decan-3-ylamino)-2-hydroxypropoxy)-N-methylbenzenesulfonamide], the IC50 was determined as 20.8 nM.
Turning to `CCn1cc(S(=O)(=O)N2CCC3(CC2)C[C@@H](NC[C@H](O)COc2cccc(S(=O)(=O)NC)c2)CO3)c(=O)c2cc(C)ccc21` [Compound 535, 3-((S)-3-((R)-8-(1-ethyl-6-methyl-4-oxo-1,4-dihydroquinolin-3-ylsulfonyl)-1-oxa-8-azaspiro[4.5]decan-3-ylamino)-2-hydroxypropoxy)-N-methylbenzenesulfonamide], the IC50 was 43.9 nM.
Regarding `CCn1cc(S(=O)(=O)N2CCC3(CC2)C[C@@H](NC[C@H](O)COc2cccc(S(=O)(=O)NC)c2)CO3)c(=O)c2cc(F)ccc21` [Compound 536, 3-((S)-3-((R)-8-(1-ethyl-6-fluoro-4-oxo-1,4-dihydroquinolin-3-ylsulfonyl)-1-oxa-8-azaspiro[4.5]decan-3-ylamino)-2-hydroxypropoxy)-N-methylbenzenesulfonamide], the IC50 worked out at 166 nM.
Turning to `CNS(=O)(=O)c1cccc(OC[C@@H](O)CN[C@H]2COC3(CCN(S(=O)(=O)c4ccc5nccn5c4)CC3)C2)c1` [Compound 537, 3-((S)-2-hydroxy-3-((R)-8-(imidazo[1,2-a]pyridin-6-ylsulfonyl)-1-oxa-8-azaspiro[4.5]decan-3-ylamino)propoxy)-N-methylbenzenesulfonamide], the IC50 came out at 101 nM.
Consider `CNS(=O)(=O)c1cccc(OC[C@@H](O)CN[C@H]2COC3(CCN(S(=O)(=O)c4cnc5cc(C)ccc5c4O)CC3)C2)c1` [Compound 538, 3-((S)-2-hydroxy-3-((R)-8-(4-hydroxy-7-methylquinolin-3-ylsulfonyl)-1-oxa-8-azaspiro[4.5]decan-3-ylamino)propoxy)-N-methylbenzenesulfonamide], for which the IC50 is 54.2 nM.
For the molecule `CNS(=O)(=O)c1cccc(OC[C@@H](O)CN[C@H]2COC3(CCN(S(=O)(=O)c4cnc5cc(F)ccc5c4O)CC3)C2)c1` [Compound 539, 3-((S)-3-((R)-8-(7-fluoro-4-hydroxyquinolin-3-ylsulfonyl)-1-oxa-8-azaspiro[4.5]decan-3-ylamino)-2-hydroxypropoxy)-N-methylbenzenesulfonamide], the IC50 was determined as 26 nM.
As for `CNS(=O)(=O)c1cccc(OC[C@@H](O)CN[C@H]2COC3(CCN(S(=O)(=O)c4cnc5c(F)cccc5c4O)CC3)C2)c1` [Compound 540, 3-((S)-3-((R)-8-(8-fluoro-4-hydroxyquinolin-3-ylsulfonyl)-1-oxa-8-azaspiro[4.5]decan-3-ylamino)-2-hydroxypropoxy)-N-methylbenzenesulfonamide], the IC50 was determined as 32.7 nM.
As for `CNS(=O)(=O)c1cccc(OC[C@@H](O)CN[C@H]2COC3(CCN(S(=O)(=O)c4cnc5ccccc5c4O)CC3)C2)c1` [Compound 541, 3-((S)-2-hydroxy-3-((R)-8-(4-hydroxyquinolin-3-ylsulfonyl)-1-oxa-8-azaspiro[4.5]decan-3-ylamino)propoxy)-N-methylbenzenesulfonamide], the IC50 is 13.4 nM.
Next, `Cc1ccc2c(O)c(S(=O)(=O)N3CCC4(CC3)C[C@@H](NC[C@H](O)COc3cccc(S(N)(=O)=O)c3)CO4)cnc2c1` [Compound 542, 3-((S)-2-hydroxy-3-((R)-8-(4-hydroxy-7-methylquinolin-3-ylsulfonyl)-1-oxa-8-azaspiro[4.5]decan-3-ylamino)propoxy)benzenesulfonamide]: 15.6 nM; `CCn1cc(S(=O)(=O)N2CCC3(CC2)C[C@@H](NC[C@H](O)COc2cccc(S(N)(=O)=O)c2)CO3)c(=O)c2ccc(F)cc21` [Compound 543, 3-((S)-3-((R)-8-(1-ethyl-7-fluoro-4-oxo-1,4-dihydroquinolin-3-ylsulfonyl)-1-oxa-8-azaspiro[4.5]decan-3-ylamino)-2-hydroxypropoxy)benzenesulfonamide]: 66.7 nM.
For `CNS(=O)(=O)c1cccc(OC[C@@H](O)CN[C@H]2COC3(CCN(S(=O)(=O)c4cn(CC(=O)O)c5ccccc5c4=O)CC3)C2)c1` [Compound 544, 2-(3-((R)-3-((S)-2-hydroxy-3-(3-(N-methylsulfamoyl)phenoxy)propylamino)-1-oxa-8-azaspiro[4.5]decan-8-ylsulfonyl)-4-oxoquinolin-1(4H)-yl)acetic acid] the value was 32.7 nM.
For `CCn1cc(S(=O)(=O)N2CCC3(CC2)C[C@@H](NC[C@H](O)COc2cccc(S(=O)(=O)NC)c2)CO3)c(=O)c2cccc(C)c21` [Compound 545, 3-((S)-3-((R)-8-(1-ethyl-8-methyl-4-oxo-1,4-dihydroquinolin-3-ylsulfonyl)-1-oxa-8-azaspiro[4.5]decan-3-ylamino)-2-hydroxypropoxy)-N-methylbenzenesulfonamide], the IC50 was determined as 121 nM.
Turning to `CCn1cc(S(=O)(=O)N2CCC3(CC2)C[C@@H](NC[C@H](O)COc2cccc(S(=O)(=O)NC)c2)CO3)c(=O)c2ccc(F)cc21` [Compound 546, 3-((S)-3-((R)-8-(1-ethyl-7-fluoro-4-oxo-1,4-dihydroquinolin-3-ylsulfonyl)-1-oxa-8-azaspiro[4.5]decan-3-ylamino)-2-hydroxypropoxy)-N-methylbenzenesulfonamide], the IC50 is 53 nM.
As for `CNS(=O)(=O)c1cccc(OC[C@@H](O)CN[C@H]2COC3(CCN(S(=O)(=O)c4cc(C)cc5c(O)ccnc45)CC3)C2)c1` [Compound 547, 3-((S)-2-hydroxy-3-((R)-8-(4-hydroxy-6-methylquinolin-8-ylsulfonyl)-1-oxa-8-azaspiro[4.5]decan-3-ylamino)propoxy)-N-methylbenzenesulfonamide], the IC50 came out at 179 nM.
Regarding `NS(=O)(=O)c1cccc(OC[C@@H](O)CN[C@H]2COC3(CCN(S(=O)(=O)c4cnc5ccccc5c4O)CC3)C2)c1` [Compound 548, 3-((S)-2-hydroxy-3-((R)-8-(4-hydroxyquinolin-3-ylsulfonyl)-1-oxa-8-azaspiro[4.5]decan-3-ylamino)propoxy)benzenesulfonamide], the IC50 worked out at 14.3 nM.
For `Cn1cc(S(=O)(=O)N2CCC3(CC2)C[C@@H](NC[C@H](O)COc2cccc(S(N)(=O)=O)c2)CO3)c(=O)c2ccccc21` [Compound 549, 3-((S)-2-hydroxy-3-((R)-8-(1-methyl-4-oxo-1,4-dihydroquinolin-3-ylsulfonyl)-1-oxa-8-azaspiro[4.5]decan-3-ylamino)propoxy)benzenesulfonamide] the value was 140 nM.
Turning to `CCn1cc(S(=O)(=O)N2CCC3(CC2)C[C@@H](NC[C@H](O)COc2cccc(S(N)(=O)=O)c2)CO3)c(=O)c2ccccc21` [Compound 550, 3-((S)-3-((R)-8-(1-ethyl-4-oxo-1,4-dihydroquinolin-3-ylsulfonyl)-1-oxa-8-azaspiro[4.5]decan-3-ylamino)-2-hydroxypropoxy)benzenesulfonamide], the IC50 was found to be 40.3 nM.
Regarding `CCCn1cc(S(=O)(=O)N2CCC3(CC2)C[C@@H](NC[C@H](O)COc2cccc(S(N)(=O)=O)c2)CO3)c(=O)c2ccccc21` [Compound 551, 3-((S)-2-hydroxy-3-((R)-8-(4-oxo-1-propyl-1,4-dihydroquinolin-3-ylsulfonyl)-1-oxa-8-azaspiro[4.5]decan-3-ylamino)propoxy)benzenesulfonamide], the IC50 worked out at 74.7 nM.
